{"source": "patent US10590393B2", "about": "“Retinoic acid enhanced human stem cell derived blood brain barrier model” (Wisconsin Alumni Research Foundation, priority 2012, dated 2020)", "tested_on": "differentiating IMR90-4 hiPSCs", "assay": "Adherens junction and tight junction protein expression (immunocytochemistry, flow cytometry, western blot)", "format": "cell-based, human", "description": "Cells were washed twice with phosphate-buffered saline (PBS; Sigma) and fixed with either 100% ice-cold methanol for 10 min or 4% paraformaldehyde for 15 min. Cells were then washed twice with PBS and blocked in PBS containing 40% goat serum (40% PBSG; Sigma) at 20° C. for 30 min. In some instances, 0.1% Triton X-100 (TX-100) was included during this step to permeabilize the cells. Cells were then washed once with PBS and incubated with primary antibodies against occludin (1:100; Invitrogen), claudin-5 (1:100; Invitrogen), VE-cadherin (1:25; Santa Cruz Biotechnology), von Willebrand Factor (vWF; 1:100; Dako), p-glycoprotein (clone F4; 1:25; Lab Vision), breast cancer resistance protein (BCRP, clone 5D3; 1:25; Millipore), multidrug resistance protein 1 (MRP1, clone QCRL-1; 1:100; Millipore), in 40% PBSG at 4° C. overnight. Cells were washed three times with PBS and incubated with secondary antibodies (goat anti-rabbit Texas Red and goat anti-mouse Alexa Fluor 488; 1:500; Invitrogen) for 1 h at 20° C. […] For quantitative analysis of BMEC integrity, the percentage of cells expressing frayed tight junctions was counted using BMECs immunolabeled for occludin. […] A minimum of four separate frames and 1000 total cells were counted to obtain a percentage of frayed tight junctions.\nCells were washed once with PBS and dissociated with ACCUTASE for 5 min, then spun down and fixed in 2% paraformaldehyde for 15 min or 100% methanol for 10 min at 20° C. […] After another two washes with PBS containing 5% FBS, cells were analyzed on a FACSCALIBER flow cytometer and the IgG control was used to quantify positive labeling. Elevated GLUT-1 expression was quantified using a GLUT-1/forward scatter plot referenced to baseline GLUT-1 expression measured at day 4 of UM culture.\nCells were washed once with PBS and lysed with RIPA buffer (Pierce, Rockford, Ill., USA). Protein concentration was quantified via BCA assay (Pierce) and proteins were then resolved by SDS-PAGE on 4-20% Tris-Glycine gradient gels (Invitrogen). […] Protein levels were detected via a SUPERSIGNAL West Pico Chemiluminescent Substrate (Pierce)."}
{"smiles": "CC1=C(/C=C/C(C)=C/C=C/C(C)=C/C(=O)O)C(C)(C)CCC1", "note": "[RA, retinoic acid]", "values": [{"measurement": "decrease of the level of claudin-5 expression", "setting": "RA during 2 days of EC medium treatment", "result": 1.7, "unit": "fold"}, {"measurement": "increase of the level of occludin expression", "setting": "RA during 2 days of EC medium treatment, across biological replicates", "result": "1.8 to 2.9", "unit": "fold"}, {"measurement": "positive expression for VE-cadherin, claudin-5, and occludin", "setting": "purified RA-treated BMECs", "result": "95-98%"}]}
